# Tested on: 299254-011-R-J1-PDC complex spheroid viability
# Assay: Anticancer human tumor 299254-011-R-J1-PDC patient-derived melanoma cell line growth inhibition [POLQ]
# Conditions: for IC50: curve of first compound; for viability, T/C: stronger effect = lower value
# How it was run: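 PDC + HUVEC + MSC complex spheroids; POLQ inhibitors ± partner drugs; top conc. at/near clinical Cmax, else 10 microM (SN-38 1 microM), half-log dilutions; 37 degrees C, 5% CO2.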
# [1] = second compound 0.0316 µM, first compound 0.0316 µM
# [2] = second compound 0.0316 µM, first compound 0.1 µM
# [3] = second compound 0.0316 µM, first compound 0.316 µM
# [4] = second compound 0.0316 µM, first compound 1 µM
# [5] = second compound 0.0316 µM, first compound 3.16 µM
# [6] = second compound 0.0316 µM, first compound 10 µM
# [7] = second compound 0.1 µM, first compound 0.0316 µM
# [8] = second compound 0.1 µM, first compound 0.1 µM
# [9] = second compound 0.1 µM, first compound 0.316 µM
# [10] = second compound 0.1 µM, first compound 1 µM
# [11] = second compound 0.1 µM, first compound 3.16 µM
# [12] = second compound 0.1 µM, first compound 10 µM
# [13] = second compound 0.316 µM, first compound 0.0316 µM
# [14] = second compound 0.316 µM, first compound 0.1 µM
# [15] = second compound 0.316 µM, first compound 0.316 µM
# [16] = second compound 0.316 µM, first compound 1 µM
# [17] = second compound 0.316 µM, first compound 3.16 µM
# [18] = second compound 0.316 µM, first compound 10 µM
# [19] = second compound 1 µM, first compound 0.0316 µM
# [20] = second compound 1 µM, first compound 0.1 µM
# [21] = second compound 1 µM, first compound 0.316 µM
# [22] = second compound 1 µM, first compound 1 µM
# [23] = second compound 1 µM, first compound 3.16 µM
# [24] = second compound 1 µM, first compound 10 µM
# [25] = second compound 3.16 µM, first compound 0.0316 µM
# [26] = second compound 3.16 µM, first compound 0.1 µM
# [27] = second compound 3.16 µM, first compound 0.316 µM
# [28] = second compound 3.16 µM, first compound 1 µM
# [29] = second compound 3.16 µM, first compound 3.16 µM
# [30] = second compound 3.16 µM, first compound 10 µM
# [31] = second compound 10 µM, first compound 0.0316 µM
# [32] = second compound 10 µM, first compound 0.1 µM
# [33] = second compound 10 µM, first compound 0.316 µM
# [34] = second compound 10 µM, first compound 1 µM
# [35] = second compound 10 µM, first compound 3.16 µM
# [36] = second compound 10 µM, first compound 10 µM
# 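Note: spheroids exposed to drugs for one week before measurement.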
# 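Throughout, for viability, T/C: percent viability relative to DMSO vehicle control taken as 100%.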
smiles,measurement,setting,value
CCc1cc2c(N3CCc4c(cc(Cn5ccnc5)cc4-c4cn(C)nc4C(F)(F)F)C3=O)cc(C)nc2c(OC)n1 + COC1C(OC(N)=O)C(O)C(Oc2ccc3c(O)c(NC(=O)c4ccc(O)c(CC=C(C)C)c4)c(=O)oc3c2C)OC1(C)C,IC50,second compound 0.0316 µM,> 10 µM
same,IC50,second compound 0.1 µM,> 10 µM
same,IC50,second compound 0.316 µM,> 10 µM
same,IC50,second compound 1 µM,> 10 µM
same,IC50,second compound 3.16 µM,> 10 µM
same,IC50,second compound 10 µM,> 10 µM
same,"viability, T/C",[1],96.8%
same,"viability, T/C",[2],96.1%
same,"viability, T/C",[3],109%
same,"viability, T/C",[4],81.1%
same,"viability, T/C",[5],91.5%
same,"viability, T/C",[6],69.5%
same,"viability, T/C",[7],99.8%
same,"viability, T/C",[8],95.3%
same,"viability, T/C",[9],104%
same,"viability, T/C",[10],108%
same,"viability, T/C",[11],107%
same,"viability, T/C",[12],63.9%
same,"viability, T/C",[13],107%
same,"viability, T/C",[14],121%
same,"viability, T/C",[15],103%
same,"viability, T/C",[16],106%
same,"viability, T/C",[17],88.4%
same,"viability, T/C",[18],66.8%
same,"viability, T/C",[19],116%
same,"viability, T/C",[20],110%
same,"viability, T/C",[21],114%
same,"viability, T/C",[22],99.6%
same,"viability, T/C",[23],94.5%
same,"viability, T/C",[24],67.4%
same,"viability, T/C",[25],106%
same,"viability, T/C",[26],107%
same,"viability, T/C",[27],100%
same,"viability, T/C",[28],106%
same,"viability, T/C",[29],99.2%
same,"viability, T/C",[30],70.6%
same,"viability, T/C",[31],96.3%
same,"viability, T/C",[32],105%
same,"viability, T/C",[33],110%
same,"viability, T/C",[34],106%
same,"viability, T/C",[35],93.5%
same,"viability, T/C",[36],73.9%
COc1ccc([C@@H](O)c2cc(-c3ncnc4cc(N5CCOCC5)ccc34)c(F)cc2Cl)nn1 + Nc1ccc(C#CCN(C(=O)Cc2ncc(C(F)(F)F)cc2C(F)(F)F)c2ccc(F)cc2)nn1,IC50,second compound 0.0316 µM,> 10 µM
same,IC50,second compound 0.1 µM,9.37 µM
same,IC50,second compound 0.316 µM,> 10 µM
same,IC50,second compound 1 µM,9 µM
same,IC50,second compound 3.16 µM,> 10 µM
same,IC50,second compound 10 µM,> 10 µM
same,"viability, T/C",[1],116%
same,"viability, T/C",[2],112%
same,"viability, T/C",[3],98%
same,"viability, T/C",[4],105%
same,"viability, T/C",[5],91.5%
same,"viability, T/C",[6],50%
same,"viability, T/C",[7],94.3%
same,"viability, T/C",[8],89.4%
same,"viability, T/C",[9],100%
same,"viability, T/C",[10],105%
same,"viability, T/C",[11],105%
same,"viability, T/C",[12],47%
same,"viability, T/C",[13],106%
same,"viability, T/C",[14],108%
same,"viability, T/C",[15],105%
same,"viability, T/C",[16],104%
same,"viability, T/C",[17],88.8%
same,"viability, T/C",[18],54.3%
same,"viability, T/C",[19],102%
same,"viability, T/C",[20],98.5%
same,"viability, T/C",[21],105%
same,"viability, T/C",[22],106%
same,"viability, T/C",[23],106%
same,"viability, T/C",[24],44.4%
same,"viability, T/C",[25],103%
same,"viability, T/C",[26],101%
same,"viability, T/C",[27],96.7%
same,"viability, T/C",[28],96%
same,"viability, T/C",[29],81.9%
same,"viability, T/C",[30],54.4%
same,"viability, T/C",[31],99.1%
same,"viability, T/C",[32],93.5%
same,"viability, T/C",[33],91.1%
same,"viability, T/C",[34],86.4%
same,"viability, T/C",[35],80.4%
same,"viability, T/C",[36],54%
CCc1cc2c(N3CCc4c(cc(Cn5ccnc5)cc4-c4cn(C)nc4C(F)(F)F)C3=O)ccnc2c(OC)n1 + COC1C(OC(N)=O)C(O)C(Oc2ccc3c(O)c(NC(=O)c4ccc(O)c(CC=C(C)C)c4)c(=O)oc3c2C)OC1(C)C,IC50,second compound 0.0316 µM,> 10 µM
same,IC50,second compound 0.1 µM,> 10 µM
same,IC50,second compound 0.316 µM,> 10 µM
same,IC50,second compound 1 µM,> 10 µM
same,IC50,second compound 3.16 µM,> 10 µM
same,IC50,second compound 10 µM,> 10 µM
same,"viability, T/C",[1],115%
same,"viability, T/C",[2],104%
same,"viability, T/C",[3],111%
same,"viability, T/C",[4],116%
same,"viability, T/C",[5],107%
same,"viability, T/C",[6],82.2%
same,"viability, T/C",[7],110%
same,"viability, T/C",[8],105%
same,"viability, T/C",[9],101%
same,"viability, T/C",[10],85.2%
same,"viability, T/C",[11],92.2%
same,"viability, T/C",[12],71.3%
same,"viability, T/C",[13],93%
same,"viability, T/C",[14],121%
same,"viability, T/C",[15],101%
same,"viability, T/C",[16],95.8%
same,"viability, T/C",[17],101%
same,"viability, T/C",[18],91.4%
same,"viability, T/C",[19],107%
same,"viability, T/C",[20],110%
same,"viability, T/C",[21],106%
same,"viability, T/C",[22],106%
same,"viability, T/C",[23],113%
same,"viability, T/C",[24],84.7%
same,"viability, T/C",[25],99.3%
same,"viability, T/C",[26],101%
same,"viability, T/C",[27],116%
same,"viability, T/C",[28],114%
same,"viability, T/C",[29],92.9%
same,"viability, T/C",[30],80%
same,"viability, T/C",[31],120%
same,"viability, T/C",[32],99.2%
same,"viability, T/C",[33],111%
same,"viability, T/C",[34],118%
same,"viability, T/C",[35],97.5%
same,"viability, T/C",[36],81.4%
